Test results taken from paper PMC10821019, “F16 Hybrids Derived from Steviol or Isosteviol Are Accumulated in the Mitochondria of Tumor Cells and Overcome Drug Resistance” (Molecules, 2024).
Several values for one entry are separate records, joined by “and”; a condition that tells them apart may be missing. Equal entries are not always repeated.

Key:
[1] = tested on: A2780 (ovarian carcinoma); assay: SRB cytotoxicity assay, A2780; format: cell-based, human; conditions: for selectivity index 1 (SI 1): CCD18Co/A2780; for IC50: SRB assay, 72 h treatment, mean n = 3, SD 5-10%; for tumor cell selectivity, in words: tumor cells vs non-malignant fibroblasts CCD18Co
Source text: (§1) All compounds were screened for their cytotoxic activity and tumor cell selectivity using our standard model, previously described, comprising a selection of human tumor cell lines representing different solid tumor entities and non-malignant human fibroblasts (CCD18Co) including the cell line pair A2780/A2780cis, a well-known model of acquired drug resistance.
(§2) Reagents were bought from commercial suppliers and used without further purification. The solvents were dried according to the usual procedures. TLC was performed on silica gel (Macherey-Nagel, detection with UV absorption; Macherey-Nagel, Düren, Germany). […] Numbering in the NMR spectra: 1–20 (diterpene core), 21–24 for O-(CH2)n-N fragment followed by the pyridinium ring, the ethenyl moiety and the indole moiety. […] IR spectra were recorded on a Perkin-Elmer Spectrum Two (UATR Two Unit, Perkin-Elmer GmbH, Rodgau, Germany). […] Both media were supplemented with 10% fetal bovine serum (Biowest, Nuaillé, France) and 1% penicillin-streptomycin (Sigma-Aldrich).
(§3) Cytotoxic activities of compounds were analyzed using the SRB cytotoxicity assay. Cells were seeded in 96-well plates and after 24 h were treated with serial dilutions of compounds for 72 h. All subsequent steps were performed according to the previously described SRB assay protocol. Dose–response curves and calculation of IC50 values, including standard deviations, were carried out using GraphPad Prism8.

[2] = tested on: A2780cis (resistant derivative of A2780); assay: SRB cytotoxicity assay, A2780cis; format: cell-based, human; conditions: for IC50: SRB assay, 72 h treatment, mean n = 3, SD 5-10%; for resistance index (RI): quotient IC50 values A2780cis/A2780; for drug resistance in the A2780/A2780cis model, in words: A2780cis vs A2780
Source text: as §1, §2, §3

A549 (lung carcinoma) = assay: SRB cytotoxicity assay, A549; format: cell-based, human; conditions: for selectivity index 2 (SI 2): CCD18Co/A549; for IC50: SRB assay, 72 h treatment, mean n = 3, SD 5-10%
Source text: as §1, §2, §3

MCF7 (breast carcinoma) = assay: SRB cytotoxicity assay, MCF7; format: cell-based, human; conditions: mean n = 3, SD 5-10%
Source text: as §1, §2, §3

[3] = tested on: HT29 (colorectal carcinoma); assay: SRB cytotoxicity assay, HT29; format: cell-based, human; conditions: mean n = 3, SD 5-10%
Source text: as §1, §2, §3

[4] = SRB cytotoxicity assay, CCD18Co; format: cell-based, human; conditions: human, CCD18Co non-malignant fibroblasts, 72 h treatment, mean n = 3, SD 5-10%
Source text: as §1, §2, §3

[5] = tested on: CCD18Co (non-malignant human fibroblasts); assay: SRB cytotoxicity assay, CCD18Co; format: cell-based; conditions: 72 h treatment, mean n = 3, SD 5-10%
Source text: as §1, §2, §3

A549 cells = assay: Subcellular localization, live cell fluorescence imaging with AHCS2 and Hoechst 33342; format: cell-based, human; conditions: 24 h, 10 µM of 5 or 1 µM of 17 or 25, together with 20 nM AHCS2, Hoechst 33342
Source text: Next, the subcellular accumulation of compounds 17 and 25 compared to 5 (F16 group) was studied, employing the fluorescent characteristics mediated by the F16 group. Expecting a mitochondrial accumulation of the compounds, our previously described strong mitochondria-targeted and NIR fluorescent agent/mitocan AHCS2 (compound 21 in ref. [4]) was used, thus enabling simultaneous analysis and direct comparison due to different fluorescence spectra.
Analysis of subcellular localization of compounds was performed in A549 cells using the established mitochondrial targeting compound AHCS2 [4] for direct comparison. For all procedures, RPMI 1640 media without phenol-red (Pan-Biotech GmbH, Aidenbach, Germany) was used. Cells were seeded in a µ-Plate 96-well black plate (ibiTreat: #1.5 polymer coverslip bottom, ibidi GmbH, Gräfelfing, Germany) at a cell density of 30.000 per well. After 24 h, cells were treated with 10 µM of compound 5 or 1 µM of compound 17 or 1 µM of compound 25, each together with 20 nM of compound AHCS2. After 24 h, Hoechst 33342 (Sigma-Aldrich) was added and live cell imaging was performed on an Axio Observer 7 (Carl Zeiss Microscopy Deutschland GmbH, Oberkochen, Germany) using the settings for Ex/Em, as follows: Hoechst 33342 (385 nm/425 nm), F16 compounds (475 nm/514 nm), AHCS2 (735 nm/785 nm). For simultaneous analysis, multiple Z-stacked images were taken and resulting pictures were reconstructed using the ZEN 3.5 pro software (Zeiss).

[6] = Homo sapiens, MCF7, 72 h treatment
[7] = Homo sapiens, HT-29, 72 h treatment

Row | melting point | Structure (SMILES) | selectivity index 1 (SI 1) [1] | IC50 ([1]; Homo sapiens, A2780) | IC50 ([2]; Homo sapiens, A2780cis) | resistance index (RI) [2] | selectivity index 2 (SI 2) (A549 (lung carcinoma)) | IC50 (A549 (lung carcinoma); Homo sapiens, A549) | IC50 (MCF7 (breast carcinoma); [6]) | IC50 [3, 7] | IC50 at 72 h [4] | IC50 [1] | tumor cell selectivity, in words [1] | drug resistance in the A2780/A2780cis model, in words [2] | IC50 [2] | IC50 (A549 (lung carcinoma)) | IC50 (MCF7 (breast carcinoma); 72 h treatment) | IC50 ([3]; 72 h treatment) | IC50 [5] | subcellular accumulation (A549 cells) | resistance index (RI) ([2]; listed as doxorubicin)
1 |  | C(=C\c1c[nH]c2ccccc12)/c1cccnc1 [Compound 4, 3-[(E)-2-Pyridin-3-yl-ethenyl]-1H-indole] | 77.40 | 1170 nM | 21000 nM | 17.97 | 5.50 | 16.4 µM | 5180 nM | 7830 nM | 90.3 µM |  |  |  |  |  |  |  |  |  | 
2 | 185 to 187 °C | C(=C\c1c[nH]c2ccccc12)/c1ccccn1 [Compound 3, 3-[(E)-2-Pyridin-2-yl-ethenyl]-1H-indole] | 73.27 | 1190 nM | 39200 nM | 32.88 | 3.33 | 26.3 µM | 1120 nM | 28700 nM | 87.4 µM |  |  |  |  |  |  |  |  |  | 
3 |  | CC12CCC3C(CCC4C(C)(C(=O)OCCCC[n+]5ccc(C=Cc6c[nH]c7ccccc67)cc5)CCCC34C)(CC1=O)C2.[Br-] (stereo not drawn) [Compound 25, 4-{4[(E)-2-(1H-Indol-3-yl)ethenyl]-pyridinium-1-yl}butyl (4α, 8β, 13β) 13-Methyl-16-oxo-17-norkauran-18-oate Bromide] | 59 and 59.32 |  |  | 1.70 | 4.14 |  |  |  |  | 180 nM | retained selectivity | able to reduce or even overcome drug resistance | 310 nM | 2.62 µM | 490 nM | 880 nM | 10.8 µM | preferential mitochondrial localization | 
4 |  | COc1cccc2c1C(=O)c1c(O)c3c(c(O)c1C2=O)C[C@@](O)(C(=O)CO)C[C@@H]3O[C@H]1C[C@H](N)[C@H](O)[C@H](C)O1 [DOX, doxorubicin, reference compound] | 32.7 | 7 nM | 109 nM | 14.7 | 13.9 | 0.017 µM | 83 nM | 98 nM | 0.242 µM |  |  |  |  |  |  |  |  |  | approximately 14
5 | 254 to 255 °C | C(=C\c1c[nH]c2ccccc12)/c1ccncc1 [Compound 5, 3-[(E)-2-Pyridin-4-yl-ethenyl]-1H-indole] | 44.21 | 2260 nM | 16400 nM | 7.26 | 6.49 | 15.4 µM | 10900 nM | 16500 nM | 100 µM |  |  |  |  |  |  |  |  | preferential mitochondrial localization | 
6 |  | CC12CCC3C(CCC4C(C)(C(=O)OCCC[n+]5ccc(C=Cc6c[nH]c7ccccc67)cc5)CCCC34C)(CC1=O)C2.[Br-] (stereo not drawn) [Compound 17, 3-{4-[(E)-2-(1H-Indol-3-yl)ethenyl]-pyridinium-1-yl}-propyl (4α, 8β, 13β) 13-Methyl-16-oxo-17-norkauran-18-oate Bromide] | 71.25 |  |  | 1.07 | 5.88 |  |  |  |  | 280 nM | retained selectivity | able to reduce or even overcome drug resistance | 300 nM | 3.39 µM | 590 nM | 760 nM | 19.9 µM | preferential mitochondrial localization | 
7 |  | C=C1C[C@@]23CC[C@H]4[C@@](C)(CCC[C@@]4(C)C(=O)OCCBr)[C@@H]2CC[C@]1(O)C3 [Compound 6, 2-Bromoethyl (4α)-13-Hydroxykaur-16-en-18-oate] | 1.70 |  |  | 1.13 | 0.51 |  |  |  |  | 24800 nM |  |  | 28100 nM | 83.4 µM | 29400 nM | 30600 nM | 42.2 µM |  | 
8 |  | C=C1C[C@@]23CC[C@H]4[C@@](C)(CCC[C@@]4(C)C(=O)OCCCC[n+]4ccc(/C=C/c5c[nH]c6ccccc56)cc4)[C@@H]2CC[C@]1(O)C3.[Br-] [Compound 24] | 53.96 |  |  | 1.13 | 4.74 |  |  |  |  | 240 nM | retained selectivity | able to reduce or even overcome drug resistance | 280 nM | 2.76 µM | 580 nM | 880 nM | 13.1 µM |  | 
9 |  | CC12CCC3C(CCC4C(C)(C(=O)OCCCC[n+]5cccc(C=Cc6c[nH]c7ccccc67)c5)CCCC34C)(CC1=O)C2.[Br-] (stereo not drawn) [Compound 27, 4-{3-[(E)-2-(1H-Indol-3-yl)ethenyl]-pyridinium-1-yl}butyl (4α, 8β, 13β) 13-Methyl-16-oxo-17-norkauran-18-oate Bromide] | 14.18 |  |  | 1.67 | 1.72 |  |  |  |  | 760 nM |  |  | 1270 nM | 6.28 µM | 1570 nM | 2200 nM | 10.8 µM |  | 
